Experimental data as given in US20120196824A1, “THERAPEUTIC AGENT FOR CEREBRAL INFARCTION” (MITSUBISHI TANABE PHARMA CORPORATION, priority 2009, published 2012).
Counter-ions that a name gives are not always drawn.

Columns and labels:
[1] = tested on: Mouse Ischemic Stroke Model; experiment: Infarct volume suppressive and motor function improving effects in mouse ischemic stroke model (Rose Bengal photothrombosis, TTC staining, Rota-rod); format: in vivo; details: dose of 10 mg/kg; for infarct volume suppression rate (%): two administrations, measured two days later, TTC staining; for walking time (%): walking time on Rota-Rod with Vehicle 100%, two days later
Method: Mouse was fixed under isoflurane anesthesia and the scalp was incised. Rose Bengal (7.5 mg/kg) was administered i.v., and green light (550 nm, Hamamatsu Photonics, K.K.) was immediately irradiated at 2 mm side and 1 mm above the bregma for 5 min. Thereafter, the scalp was bonded with an instant glue. To the test drug and control groups was given the first administration after the mice awoke, and they were subjected to the administration again the next day. Two days later, motor function was evaluated by Rota-rod (up to 60 sec, walking time on Rota-Rod was measured). Then the brain was removed, sliced in 1 mm, the site of infaction was decided by 1% TTC staining and the volume was measured by image analysis. The infarct volume suppression rate (%) and walking time (%) on Rota-Rod with Vehicle 100% at the dose of 10 mg/kg are shown in the following Table. In addition, walking time (sec) on Rota-Rod and infarct volume suppression rate (mm^3) when 3-deazaadenosine was used as a test drug are shown in FIG. 1 and FIG. 2.

[2] = target: T1, Human-recombinant-S-Adenosyl-L-Homocysteine Hydrolase (Homo sapiens, UniProt P23526); experiment: Measurement of enzyme inhibitory activity (hydrolysis of S-Adenosyl-L-Homocysteine, HPLC); format: biochemical; details: S-Adenosyl-L-Homocysteine 10 μM, pH 7.2, 37° C., 15 min
T1 construct: purchased Diazyme Laboratories
T1 sequence (P23526 whole entry): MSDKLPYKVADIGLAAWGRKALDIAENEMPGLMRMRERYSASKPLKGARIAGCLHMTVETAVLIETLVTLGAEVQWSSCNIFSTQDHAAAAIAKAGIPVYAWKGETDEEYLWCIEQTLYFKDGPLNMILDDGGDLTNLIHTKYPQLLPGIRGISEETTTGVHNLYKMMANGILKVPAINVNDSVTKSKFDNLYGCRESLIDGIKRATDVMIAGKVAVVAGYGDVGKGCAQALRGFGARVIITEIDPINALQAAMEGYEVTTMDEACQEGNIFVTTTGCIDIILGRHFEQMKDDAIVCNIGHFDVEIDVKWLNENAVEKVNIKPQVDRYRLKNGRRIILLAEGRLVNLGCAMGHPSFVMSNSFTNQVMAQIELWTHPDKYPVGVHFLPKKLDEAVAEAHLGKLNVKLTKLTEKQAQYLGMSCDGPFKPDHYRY
How it was run: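 Reactions contained recombinant human SAH hydrolase (50 ng), 10 μM S-adenosyl-L-homocysteine and adenosine deaminase (4 units) in 50 mM phosphate buffer, pH 7.2, with 1 mM EDTA, run 15 min at 37 °C. Remaining substrate was measured by reversed-phase HPLC (UV 258 nm). Inhibitory rate compared substrate depletion with versus without compound.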

[3] = tested on: homocysteine synthesis; experiment: Measurement of homocysteine synthesis inhibitory activity in vivo (methionine-loaded mouse, plasma homocysteine); details: dose of 10 mg/kg, oral, BALB/c mouse; methionine water 1 hr later; plasma 30 min after; read-out: activity (homocysteine synthesis inhibitory rate)
Method: A sample was orally administered to BALB/c mouse and, 1 hr later, methionine water (50 g/L) was orally administered at a proportion of 10 ml/kg. 30 min later, blood samples were collected with heparin from the abdominal vein and plasma was obtained. The plasma homocysteine concentration was measured by treating the plasma with tributylphosphine, removing protein with 10% trichloroacetic acid (TCA), fluorescent labeling the supernatant with 4-fluoro-7-sulfobenzofurazan ammonium salt (SBD-F) under alkali conditions, and quantifying by HPLC. The homocysteine synthesis inhibitory rate of the sample was determined with the difference in the homocysteine value between methionine water-loaded animal and methionine water-unloaded animal as 100%. The detailed conditions of HPLC were as follows.
column used: Wakopak^R HandyODS 150*4.6 mm (Wako Pure Chemical Industries, Ltd.) elution condition: 1.0 ml/min elution solvent: 0.1M phosphate buffer (pH 6.0) 2% methanol wavelength: ex 385 nm em 515 nm

| SMILES | infarct volume suppression rate (%) [1] | walking time (%) [1] | IC50 [2] | inhibition in vivo at 10 mg/kg [3] |
| --- | --- | --- | --- | --- |
| CCNCCNC(=O)CN(CC(=O)N(C)N1Cc2ccc(F)cc2C1)c1cc(-c2noc(C)n2)ccc1C.Cl [Example 20, N^2-{2-[(5-fluoro-1,3-dihydro-2H-isoindol-2-yl)(methyl)amino]-2-oxoethyl}-N^2-[2-methyl-5-(5-methyl-1,2,4-oxadiazol-3-yl)phenyl]-N^1-[2-(ethylamino)ethyl]glycinamide] | 26% | 240% | 39 nM | ≥ 40% |
| CCNCCNC(=O)CN(CC(=O)N(C)N1Cc2ccccc2C1)c1ccc(-c2noc(C)n2)cc1C [Example 65, N^2-{2-[1,3-dihydro-2H-isoindol-2-yl(methyl)amino]-2-oxoethyl}-N^2-[2-methyl-4-(5-methyl-1,2,4-oxadiazol-3-yl)phenyl]-N^1-[2-(ethylamino)ethyl]glycinamide] | 30% | 250% | 47 nM | ≥ 40% |
| CCNCCNC(=O)CN(CC(=O)N(C)N1Cc2ccc(F)cc2C1)c1cc2c(C)noc2cc1C [Example 183, N^2-(3,6-dimethyl-1,2-benzisoxazol-5-yl)-N^2-{2-[(5-fluoro-1,3-dihydro-2H-isoindol-2-yl)(methyl)amino]-2-oxoethyl}-N^1-[2-(ethylamino)ethyl]glycinamide dihydrochloride] | 22% | 240% | – | – |
| CCNCCNC(=O)CN(CC(=O)N(C)N1Cc2ccc(F)cc2C1)c1cc2c(cc1C)CCC2=O [Example 215, N^2-{2-[(5-fluoro-1,3-dihydro-2H-isoindol-2-yl)(methyl)amino]-2-oxoethyl}-N^2-(6-methyl-3-oxo-2,3-dihydro-1H-inden-5-yl)-N^1-[2-(ethylamino)ethyl]glycinamide] | 19% | 340% | 47 nM | ≥ 40% |
| CCNCCNC(=O)CN(CC(=O)N(C)N1Cc2ccc(F)cc2C1)c1cc2cnn(C)c2cc1C [Example 244, N^2-(1,6-dimethyl-1H-indazol-5-yl)-N^2-{2-[(5-fluoro-1,3-dihydro-2H-isoindol-2-yl)(methyl)amino]-2-oxoethyl}-N^1-[2-(ethylamino)ethyl]glycinamide hydrochloride] | 26% | 330% | – | ≥ 40% |
| CCNCCNC(=O)CN(CC(=O)N(C)N1Cc2ccc(F)cc2C1)c1cc2cnn(CC(F)F)c2cc1C [Example 253, N^2-[1-(2,2-difluoroethyl)-6-methyl-1H-indazol-5-yl]-N^2-{2-[(5-fluoro-1,3-dihydro-2H-isoindol-2-yl)(methyl)amino]-2-oxoethyl}-N^1-[2-(ethylamino)ethyl]glycinamide hydrochloride] | 16% | 230% | 20 nM | ≥ 40% |
